Structures can show the parent of a compound that is named as a salt.
Row | melting point | Compound
1 | 193 to 194 °C | Cc1nc2ccccc2n1-c1ccc(C(=O)N(C)[C@@H]2CCN(C3CCCCC3)C2)cc1 (as salt: hydrochloride)
2 | 185 to 186 °C | Cc1nc2ccccc2n1-c1ccc(C(=O)N(C)[C@@H]2CCN(CC3CC3)C2)cc1 (as salt: hydrochloride)
3 | 190 to 192 °C | Cc1nc2ccccc2n1-c1ccc(C(=O)N(C)[C@@H]2CCN(CC3CCCC3)C2)cc1 (as salt: hydrochloride)
4 | 219 to 221 °C | Cc1nc2ccccc2n1-c1ccc(C(=O)N(C)C2CCNCC2)cc1 (as salt: hydrochloride) [Example 30, N-Methyl-4-(2-methylbenzimidazol-1-yl)-N-piperidin-4-yl-benzamide Hydrochloride]
5 | 282 to 284 °C | Cc1nc2ccccc2n1-c1ccc(C(=O)N(C)C2CCN(C(C)C)CC2)cc1 (as salt: hydrochloride) [Example 31, N-(1-isopropylpiperidin-4-yl)-N-methyl-4-(2-methyl-1H-benzimidazol-1-yl)benzamide]
6 | 270 °C (dec.) | Cc1nc2ccccc2n1-c1ccc(C(=O)N(C)C2CCN(C3CCCC3)CC2)cc1 (as salt: hydrochloride) [Example 32, N-(1-cyclopentylpiperidin-4-yl)-N-methyl-4-(2-methyl-1H-benzimidazol-1-yl)benzamide]
7 | 285 °C (dec.) | Cc1nc2ccccc2n1-c1ccc(C(=O)N(C)C2CCN(C3CCCCC3)CC2)cc1 (as salt: hydrochloride) [Example 33, N-(1-cyclohexylpiperidin-4-yl)-N-methyl-4-(2-methyl-1H-benzimidazol-1-yl)benzamide]
8 | 280 °C (dec.) | Cc1nc2ccccc2n1-c1ccc(C(=O)N(C)C2CCN(C3CCC3)CC2)cc1 (as salt: hydrochloride) [Example 34, N-(1-cyclobutylpiperidin-4-yl)-N-methyl-4-(2-methyl-1H-benzimidazol-1-yl)benzamide]
9 | 126 to 128 °C | Cc1nc2ccccc2n1Cc1ccc(C(=O)N(C)[C@@H]2CCNC2)cc1 (as salt: hydrochloride) [Example 35, N-Methyl-4-[(2-methylbenzimidazol-1-yl)methyl]-N—(R)-pyrrolidin-3-yl-benzamide Hydrochloride]
10 | 150 to 152 °C | CN(C(=O)c1ccc(Cn2cnc3ccccc32)cc1)[C@@H]1CCNC1 (as salt: hydrochloride) [Example 36, (R)-4-((1H-benzo[d]imidazol-1-yl)methyl)-N-methyl-N-(pyrrolidin-3-yl)benzamide Hydrochloride]
11 | 188 to 190 °C | Cc1nc2ccccc2n1Cc1ccc(C(=O)N(C)[C@@H]2CCN(C3CCCCC3)C2)cc1 (as salt: hydrochloride) [Example 40, N-[(3R)-1-cyclohexylpyrrolidin-3-yl]-N-methyl-4-[(2-methyl-1H-benzimidazol-1-yl)methyl]benzamide]
12 | 200 to 202 °C | Cc1nc2ccccc2n1Cc1ccc(C(=O)N(C)C2CCN(C(C)C)CC2)cc1 (as salt: hydrochloride) [Example 46, N-(1-isopropylpiperidin-4-yl)-N-methyl-4-[(2-methyl-1H-benzimidazol-1-yl)methyl]benzamide]
13 | 280 °C (dec.) | Cc1nc2ccccc2n1Cc1ccc(C(=O)N(C)C2CCN(C3CCC3)CC2)cc1 (as salt: hydrochloride) [Example 47, N-(1-cyclobutylpiperidin-4-yl)-N-methyl-4-[(2-methyl-1H-benzimidazol-1-yl)methyl]benzamide]
14 | 280 °C (dec.) | Cc1nc2ccccc2n1Cc1ccc(C(=O)N(C)C2CCN(C3CCCC3)CC2)cc1 (as salt: hydrochloride) [Example 48, N-(1-cyclopentylpiperidin-4-yl)-N-methyl-4-[(2-methyl-1H-benzimidazol-1-yl)methyl]benzamide]
15 | 185 to 187 °C | CC(C)N1CCC(N(C)C(=O)c2ccc(Cn3cnc4ccccc43)cc2)CC1 (as salt: hydrochloride) [Example 49, 4-(1H-benzimidazol-1-ylmethyl)-N-(1-isopropylpiperidin-4-yl)-N-methylbenzamide]
16 | 238 to 240 °C | CN(C(=O)c1ccc(Cn2cnc3ccccc32)cc1)C1CCN(C2CCC2)CC1 (as salt: hydrochloride) [Example 50, 4-(1H-benzimidazol-1-ylmethyl)-N-(1-cyclobutylpiperidin-4-yl)-N-methylbenzamide]
17 | 248 to 250 °C | CN(C(=O)c1ccc(Cn2cnc3ccccc32)cc1)C1CCN(C2CCCC2)CC1 (as salt: hydrochloride) [Example 51, 4-(1H-benzimidazol-1-ylmethyl)-N-(1-cyclopentylpiperidin-4-yl)-N-methylbenzamide]
18 | 230 to 232 °C | Cc1nc2cc(C#N)ccc2n1-c1ccc(C(=O)N(C)[C@@H]2CCN(C(C)C)C2)cc1 (as salt: hydrochloride) [Example 54, 4-(5-cyano-2-methyl-1H-benzimidazol-1-yl)-N-[(3R)-1-isopropylpyrrolidin-3-yl]-N-methylbenzamide]
19 | 240 to 242 °C | Cc1nc2cc(C#N)ccc2n1-c1ccc(C(=O)N(C)[C@@H]2CCN(C3CCC3)C2)cc1 (as salt: hydrochloride) [Example 55, 4-(5-cyano-2-methyl-1H-benzimidazol-1-yl)-N-[(3R)-1-cyclobutylpyrrolidin-3-yl]-N-methylbenzamide]
20 | 185 to 187 °C | Cc1nc2cc(C#N)ccc2n1-c1ccc(C(=O)N(C)[C@@H]2CCN(C3CCCC3)C2)cc1 (as salt: hydrochloride) [Example 56, 4-(5-cyano-2-methyl-1H-benzimidazol-1-yl)-N-[(3R)-1-cyclopentylpyrrolidin-3-yl]-N-methylbenzamide]
21 | 227 to 228 °C | CC(C)N1CC[C@@H](N(C)C(=O)c2ccc(-n3cc4ccccc4n3)cc2)C1 (as salt: hydrochloride) [Example 61, 4-(2H-indazol-2-yl)-N-[(3R)-1-isopropylpyrrolidin-3-yl]-N-methylbenzamide]
22 | 163 to 165 °C | CN(C(=O)c1ccc(-n2cc3ccccc3n2)cc1)[C@@H]1CCN(C2CCC2)C1 (as salt: hydrochloride) [Example 62, N-[(3R)-1-cyclobutylpyrrolidin-3-yl]-4-(2H-indazol-2-yl)-N-methylbenzamide]
23 | 216 to 218 °C | CN(C(=O)c1ccc(-n2cc3ccccc3n2)cc1)[C@@H]1CCN(C2CCCC2)C1 (as salt: hydrochloride) [Example 63, N-[(3R)-1-cyclopentylpyrrolidin-3-yl]-4-(2H-indazol-2-yl)-N-methylbenzamide]
24 | 175 to 177 °C | CC(C)N1CC[C@@H](N(C)C(=O)c2ccc(-n3ncc4ccccc43)cc2)C1 (as salt: hydrochloride) [Example 64, 4-(1H-indazol-1-yl)-N-[(3R)-1-isopropylpyrrolidin-3-yl]-N-methylbenzamide]
25 | 163 to 165 °C | CN(C(=O)c1ccc(-n2ncc3ccccc32)cc1)[C@@H]1CCN(C2CCC2)C1 (as salt: hydrochloride) [Example 65, N-[(3R)-1-cyclobutylpyrrolidin-3-yl]-4-(1H-indazol-1-yl)-N-methylbenzamide]
26 | 151 to 152 °C | CN(C(=O)c1ccc(-n2ncc3ccccc32)cc1)[C@@H]1CCN(C2CCCC2)C1 (as salt: hydrochloride) [Example 66, N-[(3R)-1-cyclopentylpyrrolidin-3-yl]-4-(1H-indazol-1-yl)-N-methylbenzamide]

The next lines start with the compound.

Row | Compound | melting point
27 | Cc1nc2ccccc2n1-c1ccc(C(=O)N(C)[C@@H]2CCN(CC3CCCCC3)C2)cc1 (as salt: hydrochloride) | 184 to 185 °C
28 | Cc1nc2ccccc2n1-c1ccc(C(=O)N(C)[C@@H]2CCN(C(C)C)C2)cc1 (as salt: hydrochloride) | 181 to 183 °C
29 | Cc1nc2ccccc2n1-c1ccc(C(=O)N(C)[C@@H]2CCN(C3CCC3)C2)cc1 (as salt: hydrochloride) | 175 to 176 °C
30 | Cc1nc2ccccc2n1-c1ccc(C(=O)N(C)[C@@H]2CCN(C3CCCC3)C2)cc1 (as salt: hydrochloride) | 186 to 187 °C
31 | Cc1nc2ccccc2n1-c1ccc(C(=O)N(C)[C@@H]2CCN(C3CCOCC3)C2)cc1 (as salt: hydrochloride) | 200 to 202 °C
32 | Cc1nc2ccccc2n1-c1ccc(C(=O)N(C)[C@@H]2CCN(C3CC4CCC3C4)C2)cc1 (some centres unmarked) (as salt: hydrochloride) | 205 to 207 °C
33 | Cc1nc2ccccc2n1-c1ccc(C(=O)N(C)[C@@H]2CCN(C3C4CC5CC(C4)CC3C5)C2)cc1 (some centres unmarked) (as salt: hydrochloride) | 257 to 259 °C
34 | Cc1nc2ccccc2n1-c1ccc(C(=O)N(C)[C@H]2CCN(C(C)C)C2)cc1 (as salt: hydrochloride) | 190 to 192 °C
35 | Cc1nc2ccccc2n1-c1ccc(C(=O)N(C)[C@H]2CCN(C3CCC3)C2)cc1 (as salt: hydrochloride) | 184 to 185 °C
36 | Cc1nc2ccccc2n1-c1ccc(C(=O)N(C)[C@H]2CCN(C3CCCC3)C2)cc1 (as salt: hydrochloride) | 165 to 166 °C
37 | Cc1nc2ccccc2n1-c1ccc(C(=O)N(C)[C@H]2CCN(C3CCCCC3)C2)cc1 (as salt: hydrochloride) | 170 to 172 °C
38 | Cc1nc2ccccc2n1-c1ccc(C(=O)N(C)[C@H]2CCN(C3CCC(C)C3)C2)cc1 (some centres unmarked) (as salt: hydrochloride) | 173 to 175 °C
39 | Cc1nc2ccccc2n1-c1ccc(C(=O)N(C)[C@H]2CCN(C3CC[C@@H](C)C3)C2)cc1 (some centres unmarked) (as salt: hydrochloride) | 175 to 177 °C
40 | Cc1nc2ccccc2n1-c1ccc(C(=O)N(C)[C@H]2CCN(C3CCCCC3C)C2)cc1 (some centres unmarked) (as salt: hydrochloride) | 195 to 196 °C
41 | Cc1nc2ccccc2n1-c1ccc(C(=O)N(C)[C@H]2CCN(C3CCC[C@@H](C)C3)C2)cc1 (some centres unmarked) (as salt: hydrochloride) | 187 to 189 °C
42 | Cc1nc2ccccc2n1-c1ccc(C(=O)N(C)[C@H]2CCN(C3CCCC(C)C3)C2)cc1 (some centres unmarked) (as salt: hydrochloride) | 181 to 183 °C
43 | Cc1nc2ccccc2n1-c1ccc(C(=O)N(C)[C@H]2CCN(CC3CC3)C2)cc1 (as salt: hydrochloride) | 179 to 180 °C
44 | Cc1nc2ccccc2n1-c1ccc(C(=O)N(C)[C@@H]2CCN(CC(C)C)C2)cc1 (as salt: hydrochloride) | 189 to 190 °C
